From article PMC10840350 (Redox Biology, 2024)

Legend:
[1] = target: T1, TXNRD1 (thioredoxin reductase 1) (Rattus norvegicus, UniProt O89049); experiment: […] min incubation, residual activity by DTNB reduction assay; format: biochemical; conditions: 0.25 h, read-out: % residual activity at 0.5 μM
T1 sequence (O89049 1-499): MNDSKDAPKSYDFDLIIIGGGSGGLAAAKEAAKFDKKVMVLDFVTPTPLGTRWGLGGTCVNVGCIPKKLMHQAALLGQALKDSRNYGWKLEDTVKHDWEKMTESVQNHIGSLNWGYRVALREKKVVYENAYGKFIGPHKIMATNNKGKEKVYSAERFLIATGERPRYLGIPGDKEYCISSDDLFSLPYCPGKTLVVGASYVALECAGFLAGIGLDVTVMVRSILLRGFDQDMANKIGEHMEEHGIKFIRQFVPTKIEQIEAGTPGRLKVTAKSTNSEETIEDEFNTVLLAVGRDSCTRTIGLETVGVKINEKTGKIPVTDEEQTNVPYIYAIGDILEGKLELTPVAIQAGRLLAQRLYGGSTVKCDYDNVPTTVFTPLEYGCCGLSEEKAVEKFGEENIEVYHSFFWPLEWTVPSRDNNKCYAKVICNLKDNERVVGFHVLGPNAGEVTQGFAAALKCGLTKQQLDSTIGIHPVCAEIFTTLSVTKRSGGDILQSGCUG

[2] = target: T1, TXNRD1 (thioredoxin reductase 1); experiment: as above; format: biochemical

remaining activity at 0.5 µM [1]	Compound	60 min incubation, residual activity by DTNB reduction assay [2]
~30%	COc1ccc([N+](=O)[O-])c(S(=O)(=O)c2ccc(Cl)cc2)n1 [TRi-1]	–
–	[NH2][Pt]([NH2])([Cl])[Cl] [cisplatin]	the inhibition of auranofin and cisplatin on TXNRD1 is not significantly affected by guiding bar mutants
